Laboratory results taken from patent publication US20210228685A1, “IMPROVED WEIGHT LOSS THERAPY” (BIOREG LLC, priority 2018, published 2021).

Columns and labels:
ATGL = biological target: T1, ATGL (Mus musculus, UniProt Q8BJ56); assay: Atglistatin inhibition of rLIF- or isoproterenol-induced adipocyte lipolysis; type: cell-based; settings: 1 ng/ml rLIF, increasing concentrations of Atglistatin
T1 construct: endogenous in cells; host or cells: differentiated SVF adipocytes
T1 sequence (Q8BJ56 1-486): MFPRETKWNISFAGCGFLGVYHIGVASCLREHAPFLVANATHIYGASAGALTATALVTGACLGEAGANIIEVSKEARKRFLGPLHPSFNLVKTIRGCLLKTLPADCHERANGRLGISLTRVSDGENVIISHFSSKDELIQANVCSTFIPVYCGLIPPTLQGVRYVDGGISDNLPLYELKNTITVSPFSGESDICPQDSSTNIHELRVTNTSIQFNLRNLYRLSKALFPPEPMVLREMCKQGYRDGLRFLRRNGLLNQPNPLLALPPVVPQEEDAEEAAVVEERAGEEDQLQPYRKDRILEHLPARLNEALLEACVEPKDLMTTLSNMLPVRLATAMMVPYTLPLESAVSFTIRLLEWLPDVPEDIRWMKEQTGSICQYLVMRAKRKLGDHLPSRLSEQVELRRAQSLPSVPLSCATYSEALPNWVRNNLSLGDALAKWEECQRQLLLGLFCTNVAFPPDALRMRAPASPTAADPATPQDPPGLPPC
Protocol: Using the tissue culture adipocyte lipolysis assay, we tested both purified recombinant versions of LIF for their ability to stimulate lipolysis. FIG. 1B-D show adipocyte lipolysis and signaling in wild-type and mutant rLIF-treated adipocytes. Differentiated adipocytes in a 12-well format were treated in a final volume of 1.5 ml of medium supplemented with either the indicated concentration of rLIF or rLIF K159A (FIG. 1B-C); or 30 nM Isoprotererenol or 1 ng/ml rLIF in the absence or presence of the indicated concentration of Atglistatin (FIG. 1D). After incubation for 20 h at 37° C., medium was collected and glycerol concentration was measured using the adipocyte lipolysis assay (FIGS. 1B and D) or adipocyte cells were harvested and subjected to IB analysis (FIG. 1C) ([…]) with the indicated antibody. Each data point (FIG. 1B) represents the mean±SEM of the relative change in medium glycerol concentration compared to conditions containing rLIF without Atglistatin (red, 26 μM) or isoproterenol without Atglistatin (black, 83 μM). As shown in (FIG. 1B), in vitro adipocyte lipolysis activity with WT rLIF was increased over background by ˜5-fold compared with mutant rLIF K159A.
In adipocytes, triglycerides are sequentially hydrolyzed by ATGL, HSL, and monoacylglycerol lipase (MGL). […]

[1] = test system: differentiated SVF adipocytes; assay: adipocyte lipolysis assay (glycerol released into the medium); type: cell-based; settings: 12-well format, 20 h at 37° C., without Atglistatin; 1 ng/ml rLIF or 30 nM isoproterenol
Protocol: Conditioned medium from the C26c20 and MC-38 cells was subsequently placed on differentiated adipocytes, and the amount of glycerol released into the medium was quantified. Glycerol release into the medium is a marker for triglyceride lipolysis in adipocytes (27).
SVF preadipocytes were differentiated into adipocytes as follows: On day −3, SVF preadipocytes were set up in 1 ml medium B at a density of 1×10^6 cells/well of 12-well plates or 3.3×10^5 cells/well of 48-well plates. […] After 2 minutes, the amount of absorbance per well was measured using a Tecan microplate reader (absorbance 540 nm). The amount of glycerol concentration released into the medium per condition over background was calculated using the measured absorbance relative to the absorbance of the standardized curve.
To identify the proteins that mediated lipolysis in C26c20 conditioned medium, we carried out a biochemical purification using the lipolysis assay described above using SVF preadipocytes differentiated into adipocytes set up in 12-well plates or 48-well plates. […] After 2 minutes, the amount of absorbance per well was measured using a Tecan microplate reader (absorbance 540 nm). The amount of glycerol concentration released into the medium per condition over background was calculated using the measured absorbance relative to the absorbance of the standardized curve. […]

Structure (SMILES) | inhibition of rLIF-induced lipolysis (ATGL) | medium glycerol concentration [1]
CN(C)C(=O)Nc1cccc(-c2ccc(N(C)C)cc2)c1 [Atglistatin] | inhibited | –
CC(C)NCC(O)c1ccc(O)c(O)c1 (centres unmarked) [isoproterenol] | – | 83 µM
